Test results reported in US6939865B2, “Pharmaceutical dronedarone composition for parenteral administration” (Sanofi-Aventis, priority 2000, dated 2005).
Structures can show the parent of a compound that is named as a salt. Where two headings read alike, the source gives them in different places.

Assays:
[1] = Surface tension in aqueous solution (surfactant properties); assay type: physicochemical; conditions: with or without phosphate buffer
Procedure: This surfactant nature moreover proves to be as powerful in the presence as in the absence of a phosphate buffer and can be held as being partially responsible for a self-aggregation of dronedarone molecules in aqueous solution. In fact, this supramolecular organization in solution is due to the formation of dimers positioned head to tail and stacked in superimposed layers. These dimers, when they are administered by injection, lead to rupturing of the cell membrane and, consequently, to the appearance of inflammation at the injection site. Generally, these surfactant properties of dronedarone can be regarded as responsible for poor tolerance of the composition in which they are present.

[2] = Aqueous solubility of dronedarone hydrochloride; assay type: physicochemical
From the text: As indicated above, the above β-cyclodextrin derivatives, when they are used in combination with an appropriate buffer, for example a phosphate buffer, in the compositions of the invention, make it possible in particular to increase the aqueous solubility of dronedarone or of its pharmaceutically acceptable salts.

male rats = experiment: Local tolerance in animals (intravenous injection in caudal vein); assay type: in vivo; conditions: several days
Procedure: Tests were carried out for the purpose of evaluating the local tolerance of various aqueous compositions comprising dronedarone hydrochloride or only the corresponding vehicle as placebo.
To this end, a dose of one the aqueous compositions hereinbelow was administered daily for 5 days via the intravenous route to batches of 5 male rats. The injection was made in the caudal vein, preferably in the distal region, then in the median region and finally in the proximal region. The animals were then sacrificed on the 8th day and the tails were removed for the purpose of possible microscopic examination.

| Structure (SMILES) | effect on surface tension [1] | solubility ([2]; aqueous medium, aqueous buffer, ambient temperature, pH=4.85, read-out: solubility in an aqueous medium) | solubility ([2]; mono-sodium phosphate buffer (NaH2PO4), aqueous buffer, ambient temperature, pH range from 1.5 to 5, read-out: solubility in the presence of a mono-sodium phosphate buffer (NaH2PO4)) | solubility in an aqueous medium ([2]; pH range from 1.5 to 5) | solubility in an aqueous medium ([2]; pH values of greater than 5.5) | solubility in the presence of a mono-sodium phosphate buffer (NaH2PO4) ([2]; pH=5.5) | solubility ([2]; phosphate buffer with hydroxypropyl-β-cyclodextrin, aqueous with cosolvent or surfactant or cyclodextrin, 100 mmolar phosphate buffer and 5% of hydroxypropyl-β-cyclodextrin, read-out: solubility) | tolerance at the injection site (male rats; aqueous formulation 1.065 mg/ml dronedarone hydrochloride with hydroxypropyl-β-cyclodextrin) | local tolerance (male rats; aqueous formulation 1.065 mg/ml dronedarone hydrochloride with phosphate buffer) |
| --- | --- | --- | --- | --- | --- | --- | --- | --- | --- |
| CCCCc1oc2ccc(NS(C)(=O)=O)cc2c1C(=O)c1ccc(OCCCN(CCCC)CCCC)cc1 [dronedarone, 2-butyl-3-(4-[[3-(dibutylamino)propoxy]]benzoyl)-5-(methanesulphonamido)benzofuran] | marked decrease |  |  |  |  |  |  |  |  |
| CCCCc1oc2ccc(NS(C)(=O)=O)cc2c1C(=O)c1ccc(OCCCN(CCCC)CCCC)cc1 [dronedarone hydrochloride, 2-butyl-3-(4-[[3-(dibutylamino)propoxy]]benzoyl)-5-(methanesulphonamido)benzofuran] |  | 500 µg/mL | 2000 to 2250 µg/mL | virtually constant | virtually negligible | virtually zero | ~6500 µg/mL | marked intolerance | poor local tolerance |
